What follows are compounds tested against T1, PDGF-R (Mus musculus, UniProt P05622) (assay: Inhibition of PDGF-R cell-free autophosphorylation). Details: lysate from NIH 3T3 cells, stimulated with 10 ng/ml PDGF, [γ-^32 P]ATP, 4° C., immunoprecipitation.
T1 construct: endogenous in cells; host or cells: NIH 3T3 cells (lysate, immunoprecipitate)
Type: biochemical
Protocol: In order to test the present compounds for inhibition, the following procedure using PDGF stimulation is used. "IC50," as used below refers to the concentration of inhibitor ([…]) at which the rate of autophosphorylation is halved, compared with media containing no inhibitor.
Inhibition of PDGF-R Autophosphorylation
Lysate from NIH 3T3 cells was diluted one-third in Triton-free buffer and stimulated with 10 ng/ml PDGF for 30 minutes at 4° C. The equivalent of 1/15 of a 175. cm^2 plate of lysate was used per sample. The stimulated lysate was then immunoprecipitated with rabbit polyclonal anti-PDGF-receptor antibodies raised against a synthetic peptide from the COOH-terminal region (amino acids 1094-1106) or the human PDGF-receptor β-subunit and added to increasing concentrations of test compound of the present invention. After 10 minutes at 4° C., 10 μCi of [γ-^32 P]ATP were added and further incubated for 10 minutes at 4° C. Samples were separated by SDS-PAGE on 6% gels.
The following tables show examples of representative compounds of this invention and their test results as determined by the above inhibition of PDGF-R cell-free autophosphorylation procedure.

T1 sequence (P05622 32-1098): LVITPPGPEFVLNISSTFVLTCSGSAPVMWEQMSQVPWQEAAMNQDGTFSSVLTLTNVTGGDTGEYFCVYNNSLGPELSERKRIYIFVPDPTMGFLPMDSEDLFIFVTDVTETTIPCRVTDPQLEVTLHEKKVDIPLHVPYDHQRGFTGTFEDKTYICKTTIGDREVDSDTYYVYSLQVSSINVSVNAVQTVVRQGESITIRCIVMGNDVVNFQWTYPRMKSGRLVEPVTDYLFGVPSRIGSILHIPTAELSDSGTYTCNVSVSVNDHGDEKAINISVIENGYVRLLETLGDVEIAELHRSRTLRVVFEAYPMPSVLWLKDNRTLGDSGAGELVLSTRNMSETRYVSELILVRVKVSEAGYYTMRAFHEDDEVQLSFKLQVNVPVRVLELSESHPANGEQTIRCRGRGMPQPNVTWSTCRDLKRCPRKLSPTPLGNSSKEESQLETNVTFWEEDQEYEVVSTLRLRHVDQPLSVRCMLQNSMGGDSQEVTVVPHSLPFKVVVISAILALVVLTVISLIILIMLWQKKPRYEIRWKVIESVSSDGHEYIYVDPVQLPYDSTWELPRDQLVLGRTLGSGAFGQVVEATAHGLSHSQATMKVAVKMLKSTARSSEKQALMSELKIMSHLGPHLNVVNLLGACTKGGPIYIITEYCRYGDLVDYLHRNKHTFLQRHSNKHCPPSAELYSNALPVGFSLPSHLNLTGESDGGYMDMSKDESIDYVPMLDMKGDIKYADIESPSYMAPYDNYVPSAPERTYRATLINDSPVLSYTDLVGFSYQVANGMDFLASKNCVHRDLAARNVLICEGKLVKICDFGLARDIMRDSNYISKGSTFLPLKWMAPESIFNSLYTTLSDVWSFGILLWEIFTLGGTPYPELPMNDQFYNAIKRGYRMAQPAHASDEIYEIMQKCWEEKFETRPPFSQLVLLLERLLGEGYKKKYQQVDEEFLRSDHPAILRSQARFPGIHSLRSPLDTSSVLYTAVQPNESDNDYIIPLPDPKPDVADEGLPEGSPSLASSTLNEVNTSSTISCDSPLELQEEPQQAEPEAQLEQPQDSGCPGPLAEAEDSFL

Row | SMILES | IC50 [nM]
1 | Clc1ccc(-c2cnc3cc4cn[nH]c4cc3n2)s1 | 2000 to 10000
2 | COc1ccc(-c2cnc3cc4cn(C)nc4cc3n2)cc1F | < 20
3 | COc1ccc(-c2cnc3cc4cn[nH]c4cc3n2)cc1F | < 20

Next, values leading:

Row | IC50 [nM] | SMILES
4 | < 2000 | COc1ccc(-c2cnc3cc4cnn(C)c4cc3n2)cc1F
5 | 300 | Cn1cc2cc3ncc(-c4ccc(Cl)s4)nc3cc2n1

— patent US5476851A, “Pyrazolo[3,4-g]quinoxaline compounds which inhibit PDGF receptor protein tyrosine kinase” (Rhone-Poulenc Rorer Pharmaceuticals, Inc., priority 1994, dated 1995)
